Reference: paper PMC10856415, “Lactoferricin B Combined with Antibiotics Exhibits Leukemic Selectivity and Antimicrobial Activity” (Molecules, 2024)
Square brackets hold non-standard residues; d marks the D form. Ends that are not written are not given here. Peptide text beside a SMILES is read from it. * marks the point of attachment. X1 = N[C@@H](CS*)C(=O)N1CCN(c2cc3c(cc2F)c(=O)c(C(=O)O)cn3C2CC2)CC1; X2 = O=C(Cn1cc(CC(O)(Cn2cncn2)c2ccc(F)cc2F)nn1)*; Nle = CCCC[C@H](N)C(=O)O

Tests used:
BT20 = test: Cell proliferation (EC50, selectivity index) on BT20; format: cell-based, human; settings: normalized to EC50
Procedure: (§1) To evaluate their effect on leukemia, cancer, and non-cancer cells, the Malignancy Selectivity Index was calculated as MSI = EC50 (non-cancerous)/EC50 (leukemic or cancerous) or EC50 (leukemic or cancerous)/EC50 (leukemic or cancerous).
(§2) Supplementary Table S1. […] 4. […]
(§3) of incubation; The initial cellular density for HL60 was 5,000 cells, and for HEK293, it was 1,500 cells […]
(§4) Supplementary Table S2. […] The conversion from IC50 to EC50 was performed following the method outlined in [62]; For IC50 values, please refer to Supplementary […]
(§5) For MIC and IC50 data, please also refer to Ptaszyńska et al., 2019. Abbreviations: S. e. - Staphylococcus epidermidis ATCC 12228; B. s. - Bacillus subtilis ATCC 6633; S. a. - Staphylococcus aureus ATCC 25923; P. a - Pseudomonas aeruginosa ATCC 27853; B. c - Bacillus cereus PCM 2003; C. k. - Candida krusei DSM 6128; C. p. - Candida parapsilosis DSM 5784; C. a. - Candida albicans ATCC 10231; C. g. - Candida glabrata DSM 11226; C. t. - Candida […]

Candida krusei DSM 6128 = settings: C. krusei, relative to IC50 of HL60
HEK293 [1] = test: MTT drug sensitivity assay on HEK293; format: cell-based, human; settings: normalized to EC50
Procedure: (§6) As mentioned in [61], we followed detailed procedures, including the composition of media and growth conditions, for the application of conjugate 4 on both HL60 and HEK293 in the MTT drug sensitivity assay. The initial cellular density for cultures seeded in a 96-well plate was 5000 cells/well for HL60 and 1500 cells/well for HEK293.
as §2, §3, §4, §5

HL60 [2] = test: MTT drug sensitivity assay on HL60; format: cell-based, human; settings: normalized to EC50
Procedure: as §6, §2, §3, §4, §5

A549 = test: Cell proliferation (EC50, selectivity index) on A549; format: cell-based, human; settings: normalized to EC50
Procedure: as §1, §2, §3, §4, §5

HL60 [3] = test: Mitochondrial potential, DiOC6(3) flow cytometry in HL60; format: cell-based, human; settings: HL60 stained with DIOC6(3)
Procedure: HL60 was incubated with 100 nM 3,3′-dihexyloxacarbocyanine iodide (DiOC6(3)) (Cat. D273, Thermo Fisher Scientific). Cells were stained under culture conditions for 15 min, washed with prewarmed PBS, and examined by Guava EasyCyte flow cytometer (Merck-Millipore, USA). The results of flow cytometry were analyzed with Flowing Software 2.5.1 (Turku Bioscience, Finland).

S. aureus = test: Switch of S. aureus asymmetric phosphatidylserine location (Annexin V / 7AAD); format: cell-based, Staphylococcus aureus; settings: MIC concentrations, first hour to 6 h
Procedure: Bacterial cultures with an […], as utilized in bacteriostatic experiments (Ptaszyńska et al., 2019 [16, 48]), were plated on Petri dishes. Compounds were added at the MIC concentration to the test sample, while no compound was added to the negative control. After an appropriate incubation period (45 min, […]), samples were collected and promptly washed with PBS. The pellet was then suspended in 100 μL of annexin binding buffer (BioSource International, Camarillo, CA, USA), which included 0.25 μL of 7-AAD (7-aminoactinomycin D, 1 mg/mL, Sigma) and 1 μL of Annexin–FITC (Thermo Fisher, Waltham, MA, USA). Following the addition of 400 μL of annexin binding buffer, the samples were left in the dark for 15 min. Subsequently, the samples were placed on ice and immediately read by the Guava EasyCyte (Merck-Millipore, Burlington, MA, USA). Flow results were analyzed with the free online software https://floreada.io/ (accessed on 30 November 2023; the last update was carried out in June 2023).

HEK293 [4] = settings: HEK293, CM-H2DCFDA, compound at 2-fold IC90
Procedure: (§7) Cell lines were cultured as mentioned above and seeded in Petri dishes (Falcon, Cary, NC, USA) in the amount of 25 × 10^3 per Φ35 dish. HEK293 cells were allowed to attach overnight. ROS generation potential was tested for selected compounds after 0.25, 0.5, 1, 3, 6, and 24 h of incubation. The CM-H2DCFDA molecular probe (Thermo Fisher Scientific, Waltham, MA, USA) at a final concentration of 1 µM was added 15 min before the analysis. After staining, HEK293 cells were trypsinized, harvested, and suspended in fresh media. The 7AAD (Cat. A9400, Sigma Aldrich) was added just before analysis. Analyses were carried out with a Guava EasyCyte flow cytometer (Merck-Millipore, USA). Flow cytometry data were processed with Flowing Software 2.5.1 (Turku Bioscience, Turku, Finland).

HL60 [5] = settings: HL60, CM-H2DCFDA, compound at 2-fold IC90
Procedure: as §7

Compound: conjugate 1: covalently bonded LfcinB and LVX (FKCRRWQWRMKKLGAPSITCVRRAF; ends and bridges not checked; also: covalently bonded to levofloxacin, site not given here; UniProt P24627 36-60, looked up)
- Malignancy Selectivity Index, BT20 section, A549 column (BT20; A549 vs BT20): 2.9
- Malignancy Selectivity Index, BT20 section, HEK293 column (BT20; HEK293 vs BT20): 13.1
- Malignancy Selectivity Index, BT20 section, HL-60 column (BT20; HL-60 vs BT20): 0.3
- FSI (Fungistatic Selectivity Index) (Candida krusei DSM 6128): 2.9
- Malignancy Selectivity Index, HEK293 section, A549 column (HEK293 [1]; A549 vs HEK293): 0.2
- Malignancy Selectivity Index, HEK293 section, BT20 column (HEK293 [1]; BT20 vs HEK293): 0.1
- Malignancy Selectivity Index, HL60 section, A549 column (HL60 [2]; A549 vs HL60): 8.9
- Malignancy Selectivity Index, HL60 section, BT20 column (HL60 [2]; BT20 vs HL60): 3.0
- Malignancy Selectivity Index, HL60 section, HEK293 column (HL60 [2]; HEK293 vs HL60): 39.4
- Malignancy Selectivity Index, A549 section, BT20 column (A549; BT20 vs A549): 0.3
- Malignancy Selectivity Index, A549 section, HEK293 column (A549; HEK293 vs A549): 4.4
- Malignancy Selectivity Index, A549 section, HL-60 column (A549; HL-60 vs A549): 0.1

Compound: CCCC[C@H](NC(=O)[C@H](CCCNC(=N)N)NC(=O)[C@H](Cc1c[nH]c2ccccc12)NC(=O)[C@H](CCC(N)=O)NC(=O)[C@H](Cc1c[nH]c2ccccc12)NC(=O)[C@H](CCCNC(=N)N)NC(=O)[C@H](CCCNC(=N)N)NC(=O)[C@H](CSSC[C@H](N)C(=O)N1CCN(c2cc3c(cc2F)c(=O)c(C(=O)O)cn3C2CC2)CC1)NC(=O)[C@H](CCCCN)NC(=O)[C@@H](N)Cc1ccccc1)C(N)=O [conjugate 3] (H-FKC(X1)RRWQWR[Nle]-NH2; N-terminus assumed)
- Impact on mitochondrial potential (HL60 [3]): minimal impact
- Reduction in number of events (7AAD vs. Annexin V) compared to LfcinB (S. aureus): more pronounced

Compound: CSCC[C@H](NC(=O)[C@H](CCCNC(=N)N)NC(=O)[C@H](Cc1c[nH]c2ccccc12)NC(=O)[C@H](CCC(N)=O)NC(=O)[C@H](Cc1c[nH]c2ccccc12)NC(=O)[C@H](CCCNC(=N)N)NC(=O)[C@H](CCCNC(=N)N)NC(=O)[C@H](CS)NC(=O)[C@H](CCCCN)NC(=O)[C@H](Cc1ccccc1)NC(=O)Cn1cc(CC(O)(Cn2cncn2)c2ccc(F)cc2F)nn1)C(N)=O (stereo partly shown) [conjugate 4] (X2-FKCRRWQWRM-NH2; N-terminus assumed)
- Levels of cellular ROS (HEK293 [4]): negligible
- Levels of cellular ROS (HL60 [5]): negligible
